Results from patent EP0946548B1, “NOVEL HETEROCYCLIC SUBSTITUTED PYRROLIDINE AMIDE DERIVATIVES” (Aventis Pharmaceuticals Inc., priority 1996, dated 1998).
pIC50: −log10 of the molar value. Structures can show the parent of a compound that is named as a salt.

Experiments:
NK1 receptor = molecular target: T1, NK1 receptor (Cavia porcellus, UniProt P30547); assay: Antagonism of iodinated tachykinin binding to NK1 receptor (125I-Bolton Hunter Lys-3 labeled substance P); conditions: guinea pig lung membranes; mean of several experiments
T1 construct: evaluated in guinea pig lungs (Keystone Biologicals, Cleveland, OH); tissue Keystone Biologicals, Cleveland, OH; host or cells: guinea pig lung membranes
Description: (§1) One skilled in the art can determine the NK1 receptor and NK2 receptor affinity in vitro as follows. The NK1 receptor affinity of tachykinin antagonists is evaluated in guinea pig lungs (Keystone Biologicals, Cleveland, OH) and affinity for the NK2 receptor is evaluated in HSKR-1 cells (which are mouse 3T3 fibroblasts expressing the human jejunal NK2 receptor). Tissues or cells are homogenized with a Polytron in 15 volumes of 50 mM Tris-HCl buffer (pH 7.4, 4°C) and centrifuged. The pellet is resuspended in Tris-HCl buffer and is centrifuged; the pellet is washed twice by resuspension. The final pellet is resuspended at a concentration of 40 mg/ml for tissues and 20 mg/ml for cells in incubation buffer and remains at room temperature for at least 15 min prior to use. Receptor binding is initiated by addition of 250 ul membrane preparation in duplicate to 0.1 nM of the following radioligands: ^125I-Bolton Hunter Lys-3 labeled substance P and ^125iodohistidyl-1-neurokinin A; in a final volume of 500 ul of buffer containing 50 mM Tris-HCl (pH 7.4 at room temperature), 0.1% bovine serum albumin, 2 mM mangenese chloride, 40 ug/ml bacitracin, 4 µg/ml leupeptin and chymostatin, 10 µM thiorphan and various doses of the putative tachykinin antagonists. […] Filter bound radioactivity is quantitated in a gamma counter. Nonspecific binding is defined as binding in the presence of 1 µM substance P or neurokinin A. Specific binding is calculated by subtracting nonspecific binding from total binding. Competition of iodinated SP or NKA binding by test compounds or standards is expressed as a percentage of this maximum binding. […]
(§2) Tachykinin receptor binding (IC50 values) for representative compounds of the present invention are found in Table 1. Specifically, NK1 and NK2 receptor binding values were determined by the method of present Example A. These values represent the mean of several experiments. […]

[1] = molecular target: T2, human jejunal NK2 receptor (Homo sapiens, UniProt P21452); assay: Antagonism of iodinated tachykinin binding to NK2 receptor (125iodohistidyl-1-neurokinin A) in HSKR-1 cells; conditions: HSKR-1 cells (mouse 3T3 fibroblasts expressing the human jejunal NK2 receptor); mean of several experiments
T2 construct: expressed in transfected cells; host or cells: HSKR-1 cells (mouse 3T3 fibroblasts)
T2 sequence (P21452 1-398): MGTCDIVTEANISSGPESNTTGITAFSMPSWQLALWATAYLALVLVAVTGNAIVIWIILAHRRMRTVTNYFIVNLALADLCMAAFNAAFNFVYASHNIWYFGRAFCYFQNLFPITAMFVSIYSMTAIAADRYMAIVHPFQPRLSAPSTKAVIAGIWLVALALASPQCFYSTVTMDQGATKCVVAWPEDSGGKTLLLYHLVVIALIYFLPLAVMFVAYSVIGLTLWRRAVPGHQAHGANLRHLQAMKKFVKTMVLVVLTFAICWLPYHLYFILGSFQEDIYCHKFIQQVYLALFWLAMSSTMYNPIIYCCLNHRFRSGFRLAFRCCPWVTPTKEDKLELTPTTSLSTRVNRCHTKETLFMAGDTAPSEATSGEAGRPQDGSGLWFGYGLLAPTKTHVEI
Description: as §1, §2

[2] = Metabolic stability: disappearance of test compound in guinea pig liver S9 supernatant; format: in vitro ADME; conditions: initial concentration 10µM, 37°C
Description: (§3) One skilled in the art can determine the metabolic stability for the compounds of the present invention by determining the rate of disappearance of the test comopund in vitro in liver extracts. Metabolic stability is inversely related to the rate of metabolism which can be evaluated by determining the rate of disappearance of the test compounds during the initial linear phase of this assay.
(§4) This method is carried out using either S9 or S10 liver supernatant obtained from either guinea pig or human liver. Guinea pig liver S9 can be purchased from Vitro Technologies, Baltimore, Md and human liver S9 can be purchased from IIAM, Eaton Pa. Both guinea pig and human S10 supernatant can be prepared as follows: Combine weighed liver (fresh or stored at -80°C until use) and 1.15% aqueous potassium chloride solution (10-15 mL) and homogenize using a PCU Poltron from Kinematics of Switzerland or equivalent. Combine the homogenate with 1.15% aqueous potassium chloride solution, sufficient so that 3 mL of solution (total) is used per […] of liver, and mix. Store the above homogenate on ice at all times prior to use and at -80°C for long term storage.
(§5) Prepare a stock solution of each test compound in methanol, such that 0.1 mL of the stock solution when spiked into 16 mL of incubation mixture yields an initial concentration of 10µM of the test compound. Using this method the methanol content of the final incubation mixture will not exceed 1%.
(§6) Prepare the incubation mixture by combining in an incubation beaker S9 or S10 supernatant (4 mL); an aqueous solution containing 1.1 mM NADP, […] (4 units/2 mL)(0.32 mL); and an aqueous 0.1 M dipotassium monohydrogen phosphate solution (7.58 mL). Incubate the test compound by adding 0.1 mL of the stock solution of test compound to an incubation mixture, placed in a shaking water bath at 37°C.
(§7) To determine the rate of disappearance of test compounds in this assay, remove triplicate aliquots (0.5 mL) from the incubation beaker at 1, 3, 5, 10, 15, 30, and 60 minutes. Freeze all aliquots in a hexane/dry-ice slurry to instantly deactivate the enzymes. Store at -70°C until assayed. The concentration of test compound in each aliquot is determined by HPLC after preparation and as compared to a standard concentration of test compound, such preparations and determinations are well known and appreciated in the art. The rate of disappearance can be determined from the slope of the initial linear phase of this assay by graphing the change in concentration of test compound vs. time.
(§8) Calibration standards for Compound A were prepared as follows: dissolve 10 mg of Compound A (free base) in methanol (10 mL) to give a 1 mg/mL stock solution. Use acetonitrile to dilute 1 mL of stock solution to 10 mL to give a 100 µg/mL spiking standard and serially dilute the 100µg/mL solution with acetonitrile to give spiking standards having concentrations of 50, 25, 10, 5, 2.5, and 1.0 µg/mL. Calibration standards having concentrations of 10,000; 5,000; 2,500; 1,000; 500; 250; and 100 ng/mL are prepared in duplicated by adding 20 µL of each spiking standards to 0.2 mL of control S9 supernatant. Blanks and samples each receive 20µL of acetonitrile. Calibration standards and aliquots from that assay of compound A were prepared and evaluated as follows: charge a purple sulfonic acid solid phase extraction cartridge (Varian Inc., Harbor City, Ca.) with methanol (1 mL) and an aqueous 0.5% monochloroacetic acid solution (1 mL). Dilute the 0.2 mL of calibration standard or aliquot from the incubation with aqueous 5% acetonitrile (0.5 mL) and add to the charged cartridge. Pull the sample through the cartridge using vacuum, rinse with aqueous 0.5% monochloroacetic acid solution (1 mL), aqueous 50% acetonitrile solution (50 mM potassium hydroxide) (1 mL). Elute into HPLC vial using 60% methanol, 38% water, 1% acetic acid, 1% triethylamine (0.4 mL). […]

[3] = Metabolic stability: disappearance of test compound in human liver S9 supernatant; format: in vitro ADME; conditions: initial concentration 10µM, 37°C
Description: as §3, §4, §5, §6, §7, §8

T1 sequence (P30547 whole entry): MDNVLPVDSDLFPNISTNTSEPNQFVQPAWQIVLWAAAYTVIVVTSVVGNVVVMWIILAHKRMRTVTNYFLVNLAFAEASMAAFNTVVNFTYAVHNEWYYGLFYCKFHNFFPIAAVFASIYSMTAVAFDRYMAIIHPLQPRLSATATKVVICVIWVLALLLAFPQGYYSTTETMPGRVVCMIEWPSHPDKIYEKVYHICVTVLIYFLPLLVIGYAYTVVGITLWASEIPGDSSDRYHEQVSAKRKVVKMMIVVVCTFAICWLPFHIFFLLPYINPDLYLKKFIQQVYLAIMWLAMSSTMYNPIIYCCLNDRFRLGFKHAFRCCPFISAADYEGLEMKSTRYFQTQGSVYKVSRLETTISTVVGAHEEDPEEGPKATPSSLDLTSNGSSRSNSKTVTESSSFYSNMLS

| Structure (SMILES) | pIC50 (NK1 receptor) | pIC50 [1] | Metabolic Stability in Guinea Pig Liver S9, concentration ([2]; Time 1 min) [µg/mL] | Metabolic Stability in Guinea Pig Liver S9, concentration ([2]; Time 3 min) [µg/mL] | Metabolic Stability in Guinea Pig Liver S9, concentration ([2]; Time 5 min) [µg/mL] | Metabolic Stability in Guinea Pig Liver S9, concentration ([2]; Time 10 min) [µg/mL] | Metabolic Stability in Guinea Pig Liver S9, concentration ([2]; Time 15 min) [µg/mL] | Metabolic Stability in Guinea Pig Liver S9, concentration ([2]; Time 30 min) [µg/mL] | Metabolic Stability in Guinea Pig Liver S9, concentration ([2]; Time 60 min) [µg/mL] | Metabolic Stability in Human Liver S9, concentration ([3]; Time 1 min) [µg/mL] | Metabolic Stability in Human Liver S9, concentration ([3]; Time 3 min) [µg/mL] | Metabolic Stability in Human Liver S9, concentration ([3]; Time 5 min) [µg/mL] | Metabolic Stability in Human Liver S9, concentration ([3]; Time 10 min) [µg/mL] | Metabolic Stability in Human Liver S9, concentration ([3]; Time 15 min) [µg/mL] | Metabolic Stability in Human Liver S9, concentration ([3]; Time 30 min) [µg/mL] | Metabolic Stability in Human Liver S9, concentration ([3]; Time 60 min) [µg/mL] |
| --- | --- | --- | --- | --- | --- | --- | --- | --- | --- | --- | --- | --- | --- | --- | --- | --- |
| COc1cc(C(=O)N2CCC(CCN3CCC(C(N)=O)(c4ccccc4)CC3)(c3ccc(Cl)c(Cl)c3)C2)cc(OC)c1OC.Cl (single isomer, unassigned; (+)) [Compound C, (+)-1-(2-(3-(3,4-dichloro-phenyl)-1-(3,4,5-trimethoxy-benzoyl)-pyrrolidin-3-yl)-ethyl)-4-phenyl-piperidine-4-carboxylic acid amide hydrochloride, reference compound] | 8.52 | 8.09 | 6.3 | 6.0 | 5.3 | 4.8 | 4.0 | 3.8 | 3.5 | 6.2 | 5.6 | 5.9 | 5.2 | 4.5 | 3.2 | 2.5 |
| COc1ccc(-n2cnnn2)cc1C(=O)N1CC[C@](CCN2CCC(C(N)=O)(c3ccccc3)CC2)(c2ccc(Cl)c(Cl)c2)C1 [Compound A, (R)-1-(2-methoxy-5-(1H-tetrazol-1-yl)benzoyl)-3-(2-(4-phenyl-4-carboxamidopiperidin-1-yl)ethyl)-3-(3,4-dichlorophenyl)pyrrolidine hydrochloric acid salt] | 8.55 | 7.79 | 6.1 | 6.6 | 6.3 | 6.1 | 6.1 | 6.3 | 6.9 | 6.6 | 6.5 | 6.6 | 6.7 | 6.6 | 6.8 | 6.9 |
| COc1ccc(-n2cnnn2)cc1C(=O)N1CC[C@](CCN2CCC(C(N)=O)(c3cccnc3)CC2)(c2ccc(Cl)c(Cl)c2)C1 [Compound B, (R)-1-(2-methoxy-5-(1H-tetrazol-1-yl)benzoyl)-3-(2-(4-(pyrid-3-yl)-4-carboxamidopiperidin-1-yl)ethyl)-3-(3,4-dichlorophenyl)pyrrolidine hydrochloric acid salt] | 8.50 | 6.63 | 6.2 | 6.4 | 6.4 | 6.3 | 6.3 | 6.3 | 6.2 | 6.4 | 6.6 | 6.1 | 6.1 | 5.7 | 5.3 | 4.4 |
